Legend:
Format in all cases: functional
Rattus norvegicus [1] = experiment: % inhibition of antiallergic activity in the rat passive cutaneous anaphylaxis (PCA) test after giving intraperitoneal dose of 16 mg/kg; Not significant; details: ip
Rattus norvegicus [2] = species: Rattus norvegicus; experiment: Dose that causes 50% inhibition in the expected wheal size when given perorally; details: po, read-out: ID50 (the source's name)
Rattus norvegicus [3] = experiment: % inhibition of antiallergic activity in the rat passive cutaneous anaphylaxis (PCA) test after giving peroral dose of 32 mg/kg; details: route oral
Rattus norvegicus [4] = experiment: % inhibition of antiallergic activity in the rat passive cutaneous anaphylaxis (PCA) test after giving intraperitoneal dose of 16 mg/kg; details: ip
Rattus norvegicus [5] = experiment: % inhibition of antiallergic activity in the rat passive cutaneous anaphylaxis (PCA) test after giving intraperitoneal dose of 8 mg/kg; details: ip

Row | Structure (SMILES) | inhibition in vivo at 16 mg/kg (Rattus norvegicus [1]) [%] | ED50 (Rattus norvegicus [2]) [mg/kg] | inhibition in vivo at 32 mg/kg (Rattus norvegicus [3]) [%] | inhibition in vivo at 16 mg/kg (Rattus norvegicus [4]) [%] | inhibition in vivo at 8 mg/kg (Rattus norvegicus [5]) [%]
1 | O=C(O)c1ccc2nc3ccccn3c(=O)c2c1 [DOQUALAST] | 16 |  |  |  | 
2 | CC(C)c1ccc2nc3ccc(C(=O)O)cn3c(=O)c2c1 |  | 0.45 | 87 | 76 | 
3 | CO/N=C(\C)c1ccc2nc3ccc(C(=O)O)cc3c(=O)n2c1 |  |  |  | 36 | 
4 | Cc1ccc2nc3ccc(C(=O)O)cn3c(=O)c2c1 |  | 3.53 | 83 | 58 | 
5 | CC(C)c1ccc2nc3ccc(C(=O)O)cc3c(=O)n2c1 |  | 0.026 | 92 | 81 | 
6 | Cc1ccc2nc3ccc(C(=O)O)cc3c(=O)n2c1 |  | 7.11 | 81 | 69 | 
7 | O=C(O)c1cc(=O)c2c(OCC(O)COc3cccc4oc(C(=O)O)cc(=O)c34)cccc2o1 [CROMOLYN SODIUM] |  |  | 18 |  | 46
8 | CC(=O)c1ccc2nc3ccc(C(=O)O)cc3c(=O)n2c1 |  |  |  | 44 | 
9 | O=C(O)c1ccc2nc3ccccc3c(=O)n2c1 | 17 |  |  |  | 
